The results in this text go back to ChEMBL document CHEMBL5725787, “Fused pyrimidine compound or salt thereof” (2017).

The target in this test is Tyrosine-protein kinase BTK (Homo sapiens, UniProt Q06187). The test can be described thus: BTK Inhibitory Activity: With regard to the setting of the conditions for a method for measuring the inhibitory activity of a compound against BTK kinase activity in vitro, it is described in the consumable reagent supplies price list for LabChip (registered trademark) series of PerkinElmer, Inc. that FL-PEPTIDE 2 corresponds to a substrate peptide for the measurement of BTK kinase activity. Therefore, FL-PEPTIDE 2 was used as a substrate. The purified recombinant human BTK protein used in the test was purchased from Carna Biosciences, Inc.With regard to the measurement of the inhibitory activity of the compounds, firstly, the compounds of the present invention were diluted stepwise with dimethyl sulfoxide (DMSO). Subsequently, BTK protein, a substrate peptide (final concentration was 1 μM), magnesium chloride (final concentration was 10 mM), ATP (final concentration was 45 μM), and a DMSO solution of the compounds of the present invention (final concentration of DMSO was 5%) were added to a buffer solution for kinase reaction (20 mM HEPES (pH 7.5), 2 mM dithiotheitol, 0.01% Triton X-100), and after the solution was incubated for 40 minutes at 25° C., a kinase reaction was carried out. The reaction was terminated by adding EDTA thereto in order to obtain a final concentration of 30 mM. […].

Each structure is given as a SMILES string.

Sequence of Tyrosine-protein kinase BTK (Q06187 whole entry): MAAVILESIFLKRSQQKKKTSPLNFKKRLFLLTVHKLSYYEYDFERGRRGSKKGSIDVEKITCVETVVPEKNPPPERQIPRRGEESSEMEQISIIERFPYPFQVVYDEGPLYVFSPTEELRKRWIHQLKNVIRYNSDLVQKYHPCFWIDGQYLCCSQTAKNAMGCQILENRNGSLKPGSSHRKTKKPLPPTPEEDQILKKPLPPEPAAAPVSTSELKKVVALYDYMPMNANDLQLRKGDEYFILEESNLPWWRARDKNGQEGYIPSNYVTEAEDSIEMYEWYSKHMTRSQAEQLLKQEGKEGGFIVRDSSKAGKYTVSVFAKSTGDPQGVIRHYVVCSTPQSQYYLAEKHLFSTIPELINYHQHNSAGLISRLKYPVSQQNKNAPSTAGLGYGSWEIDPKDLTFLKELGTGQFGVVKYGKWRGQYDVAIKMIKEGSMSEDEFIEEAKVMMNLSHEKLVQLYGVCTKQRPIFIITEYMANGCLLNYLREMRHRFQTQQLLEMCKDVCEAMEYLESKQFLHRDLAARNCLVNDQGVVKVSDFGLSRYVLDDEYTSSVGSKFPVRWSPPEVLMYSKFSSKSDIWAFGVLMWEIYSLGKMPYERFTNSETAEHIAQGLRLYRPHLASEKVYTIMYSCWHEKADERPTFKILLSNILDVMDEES

Consider `C=CC(=O)N1CC[C@@H](n2nc(C(=O)Nc3nc4cc(-c5ccccc5)ccc4o3)c3c(N)ncnc32)C1`, for which the IC50 is 0.442 nM.

For orientation: IC50 means the concentration needed to halve the response being measured.
